These compounds were tested against T1, Cytochrome P450 11B2, mitochondrial (Homo sapiens, UniProt P19099). Details: Adrenal gland.
T1 sequence (P19099 whole entry): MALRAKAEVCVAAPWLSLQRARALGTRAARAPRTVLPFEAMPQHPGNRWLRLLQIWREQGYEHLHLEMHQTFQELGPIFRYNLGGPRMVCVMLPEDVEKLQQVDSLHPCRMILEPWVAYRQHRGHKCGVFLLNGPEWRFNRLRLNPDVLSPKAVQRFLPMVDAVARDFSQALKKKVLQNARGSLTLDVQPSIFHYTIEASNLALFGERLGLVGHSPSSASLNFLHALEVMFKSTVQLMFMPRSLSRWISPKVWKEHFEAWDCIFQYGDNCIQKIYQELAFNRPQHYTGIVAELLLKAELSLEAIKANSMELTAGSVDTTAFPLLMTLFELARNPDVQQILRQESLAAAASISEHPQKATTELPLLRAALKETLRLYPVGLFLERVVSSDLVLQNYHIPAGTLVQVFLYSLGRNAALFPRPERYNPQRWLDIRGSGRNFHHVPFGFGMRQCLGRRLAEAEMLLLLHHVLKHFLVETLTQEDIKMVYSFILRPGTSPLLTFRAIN
Description: Inhibitory activity against Steroidgenic Cytochrome P450 C18 using Bovine adrenal mitochondria

IC50 | Structure (SMILES)
< 10 µM | c1ccc2c(c1)CCC1C(c3ccsc3)C21 (centres undefined)

What follows are compounds tested against T2, Steroid 17-alpha-hydroxylase/17,20 lyase (Rattus norvegicus, UniProt P11715). Details: not given.
T2 sequence (P11715 whole entry): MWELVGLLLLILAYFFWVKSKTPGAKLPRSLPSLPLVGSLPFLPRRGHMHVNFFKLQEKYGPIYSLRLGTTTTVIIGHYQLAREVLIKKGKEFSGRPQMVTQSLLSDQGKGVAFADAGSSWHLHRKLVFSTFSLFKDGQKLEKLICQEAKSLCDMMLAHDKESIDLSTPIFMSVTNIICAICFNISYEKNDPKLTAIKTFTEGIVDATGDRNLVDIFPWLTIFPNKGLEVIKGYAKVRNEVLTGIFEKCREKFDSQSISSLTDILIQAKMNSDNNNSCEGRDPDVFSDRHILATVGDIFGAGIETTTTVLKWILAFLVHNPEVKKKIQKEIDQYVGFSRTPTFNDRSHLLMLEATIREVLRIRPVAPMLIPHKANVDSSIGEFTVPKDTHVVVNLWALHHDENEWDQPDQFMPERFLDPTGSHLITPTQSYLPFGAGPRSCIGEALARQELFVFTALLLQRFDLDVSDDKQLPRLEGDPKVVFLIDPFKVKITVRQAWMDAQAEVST

IC50 | Structure (SMILES)
< 10 µM | c1ccc(C2C3CCc4ccccc4C32)nc1 (centres undefined)
< 10 µM | O=C1/C(=C/c2cccnn2)CCc2ccccc21
< 10 µM | O=C1c2ccccc2CCC1C(O)c1cccnn1 (centres undefined)
87 µM | c1cncc(C2C3CCc4ccccc4C32)c1 (centres undefined)
< 10 µM | O=C1c2ccccc2CCC1C(O)c1cnccn1 (centres undefined)
< 10 µM | O=C1/C(=C/c2ccsc2)CCc2ccccc21
< 10 µM | c1ccc2c(c1)CCC1C(c3ccsc3)C21 (centres undefined)
< 10 µM | c1ccc(C2C3CCc4ccccc4C32)cc1 (centres undefined)
37 µM | O=C1/C(=C/c2ccncc2)CCc2ccccc21
< 10 µM | O=C1c2ccccc2CCC1C(O)c1ccnnc1 (centres undefined)
36 µM | c1ccc2c(c1)CCC1C(c3ccncc3)C21 (centres undefined)
48 µM | O=C1/C(=C/c2cccnc2)CCc2ccccc21
< 10 µM | O=C1/C(=C/c2ccccn2)CCc2ccccc21
< 10 µM | O=C1/C(=C/c2ccnnc2)CCc2ccccc21
21 µM | O=C1/C(=C/c2cncs2)CCc2ccccc21
< 10 µM | O=C1c2ccccc2CCC1C(O)c1ccncn1 (centres undefined)
< 10 µM | O=C1/C(=C/c2ccccc2)CCc2ccccc21
< 10 µM | O=C1/C(=C/c2cc[nH]n2)CCc2ccccc21
